Measurements reported in the NIST ThermoML archive (doi:10.1021/je0497247).
± gives the expanded uncertainty stated by the source.

Experiment: wn = mass fraction of the nth substance listed
Conditions: 100 kPa, Liquid; for mass density: Pycnometric method; for viscosity: Capillary tube (Ostwald / Ubbelohde) method

O=C(O)c1ccccc1 [benzoic acid] + O
Conditions	mass density [kg/m3]	thermal conductivity [W/m/K]	viscosity [mPa·s]
373 K, w1 = 0.1	–	0.659 ± 0.023	–
374.6 K, w1 = 0.05	–	0.671 ± 0.023	–
379.1 K, w1 = 0.1	974.1 ± 0.9	–	–
379.6 K, w1 = 0.05	963.7 ± 0.8	–	–
380.6 K, w1 = 0.1	–	–	0.319 ± 0.004
381.1 K, w1 = 0.05	–	–	0.288 ± 0.003
391 K, w1 = 0.2	–	0.649 ± 0.022	–
392.9 K, w1 = 0.1	961 ± 0.9	–	–
393.6 K, w1 = 0.05	–	0.675 ± 0.023	–
393.6 K, w1 = 0.4	–	0.575 ± 0.02	–
393.9 K, w1 = 0.8	–	0.199 ± 0.008	–
394.2 K, w1 = 0.1	–	0.662 ± 0.023	–
394.6 K, w1 = 0.05	951.9 ± 0.8	–	–
395.9 K, w1 = 0.1	–	–	0.272 ± 0.003
397.6 K, w1 = 0.05	–	–	0.256 ± 0.003
400.3 K, w1 = 0.2	963.5 ± 1	–	–
400.3 K, w1 = 1	–	–	1.372 ± 0.037
400.8 K, w1 = 0.4	988.8 ± 1.4	–	–
400.9 K, w1 = 0.8	1050.1 ± 2.4	–	–
401.3 K, w1 = 1	1089.5 ± 3	–	–
401.6 K, w1 = 0.6	1013.8 ± 1.9	–	–
401.8 K, w1 = 0.2	–	–	0.329 ± 0.004
402.3 K, w1 = 0.4	–	–	0.501 ± 0.008
402.4 K, w1 = 0.8	–	–	0.931 ± 0.022
403.1 K, w1 = 0.6	–	–	0.708 ± 0.013
406.8 K, w1 = 1	–	0.139 ± 0.006	–
409.2 K, w1 = 0.2	–	0.65 ± 0.022	–
409.2 K, w1 = 0.4	–	0.571 ± 0.02	–
409.3 K, w1 = 1	–	–	1.238 ± 0.032
410.3 K, w1 = 1	1080.2 ± 3.2	–	–
410.9 K, w1 = 0.1	–	0.67 ± 0.023	–
412.1 K, w1 = 0.1	945.4 ± 0.9	–	–
413.2 K, w1 = 0.8	–	0.197 ± 0.008	–
413.3 K, w1 = 0.05	–	0.676 ± 0.023	–
413.4 K, w1 = 0.05	935.5 ± 0.9	–	–
413.8 K, w1 = 0.2	950.8 ± 1.1	–	–
414.8 K, w1 = 0.4	975.1 ± 1.4	–	–
414.8 K, w1 = 0.8	1035 ± 2.4	–	–
415.1 K, w1 = 0.1	–	–	0.236 ± 0.003
415.9 K, w1 = 0.6	999.2 ± 1.8	–	–
416.4 K, w1 = 0.05	–	–	0.219 ± 0.003
416.8 K, w1 = 0.2	–	–	0.274 ± 0.004
417.8 K, w1 = 0.4	–	–	0.383 ± 0.006
418 K, w1 = 0.2	–	0.651 ± 0.022	–
418.3 K, w1 = 1	–	–	1.117 ± 0.03
418.8 K, w1 = 0.8	–	–	0.69 ± 0.016
418.9 K, w1 = 0.6	–	–	0.547 ± 0.011
419.3 K, w1 = 1	1069.8 ± 3	–	–
420.1 K, w1 = 0.4	–	0.549 ± 0.019	–
424.4 K, w1 = 1	–	0.137 ± 0.006	–
427.2 K, w1 = 1	–	–	1.026 ± 0.028
428.2 K, w1 = 1	1060.2 ± 3	–	–
428.4 K, w1 = 0.1	929.6 ± 1	–	–
430.1 K, w1 = 0.4	–	0.568 ± 0.02	–
431.3 K, w1 = 0.8	1018.8 ± 2.4	–	–
431.4 K, w1 = 0.1	–	–	0.211 ± 0.003
431.9 K, w1 = 0.2	933.7 ± 1.1	–	–
432.1 K, w1 = 1	1055 ± 3	–	0.953 ± 0.026
432.6 K, w1 = 0.4	955 ± 1.5	–	–
433.1 K, w1 = 0.05	915.2 ± 1	–	–
433.1 K, w1 = 0.8	–	0.192 ± 0.008	–
433.9 K, w1 = 0.6	981.1 ± 1.9	–	–
434.3 K, w1 = 0.8	–	–	0.542 ± 0.013
434.9 K, w1 = 0.2	–	–	0.234 ± 0.003
435.6 K, w1 = 0.4	–	–	0.309 ± 0.005
436.1 K, w1 = 0.05	–	–	0.194 ± 0.003
436.9 K, w1 = 0.6	–	–	0.399 ± 0.008
444.9 K, w1 = 0.1	912.6 ± 1.1	–	–
444.9 K, w1 = 1	–	0.134 ± 0.006	–
447.1 K, w1 = 1	1036 ± 3	–	0.802 ± 0.022
447.9 K, w1 = 0.1	–	–	0.194 ± 0.003
449.4 K, w1 = 0.8	1000.5 ± 2.3	–	–
450.8 K, w1 = 0.05	896.3 ± 1.1	–	–
451 K, w1 = 0.8	–	0.188 ± 0.008	–
452.1 K, w1 = 0.4	932 ± 1.4	–	–
452.4 K, w1 = 0.2	912 ± 1.2	–	–
452.4 K, w1 = 0.8	–	–	0.438 ± 0.01
453.4 K, w1 = 0.6	959.5 ± 1.9	–	–
453.8 K, w1 = 0.05	–	–	0.177 ± 0.002
455.1 K, w1 = 0.4	–	–	0.263 ± 0.004
455.4 K, w1 = 0.2	–	–	0.206 ± 0.003
456.4 K, w1 = 0.6	–	–	0.334 ± 0.006
465.1 K, w1 = 1	–	0.132 ± 0.006	–
